One data set deals with cMyc. Kind of data set: cMyc immunoblot in SNU449 cells infected with lentiviral vectors. Format: cell-based, human. The conditions noted are these: 48 hours, FIG. 8B. The procedure: After 48 hours, cells were lysed and an immunoblot was performed using an anti-cMyc (Santa Cruz) and an anti-actin (Sigma) antibody for a protein loading control.
For orientation: Immunoblotting shows a protein as a band on a membrane.

In the next data set the test system is human FDPS. Kind of data set: Functional assay for FDPS mRNA reduction (quantitative RT-PCR). Format: cell-based. The conditions noted are these: HepG2 cells, 48 hours after transduction, mRNA normalized to actin; FIG. 4A. How it is done:
(§1) Vector Construction: For FDPS shRNA, oligonucleotide sequences containing BamHI and EcoRI restriction sites were synthesized by MWG operon. Oligonucleotide sequences were annealed by incubation at 70 degrees Celsius and cooling to room temperature. Annealed oligonucleotides were digested with the restriction enzymes BamHI and EcoRI for one hour at 37 degrees Celsius and then the enzymes were heat-inactivated at 70 degrees Celsius for 20 minutes. In parallel, the lentiviral vector was digested with the restriction enzymes BamHI and EcoRI for one hour at 37 degrees Celsius. […] The DNA concentration was determined and the vector to oligo sequence was ligated in the ratio 3:1 insert to vector. […] Cells were collected after 2-4 days and protein and RNA was analyzed for FDPS expression.
Functional Assay for mRNA Reduction: The effect of different FDPS short homology RNA (shRNA) targeting sequences on FDPS expression was determined by measuring mRNA expression. […] The samples were then analyzed by quantitative RT-PCR using an Applied Biosystems StepOne PCR machine. FDPS expression was detected with SYBR Green from Invitrogen using the forward primer (5′-[…]-3′) (SEQ ID NO: 59) and reverse primer (5′-[…]-3′) (SEQ ID NO: 60) with standard conditions for polymerase chain reaction analysis. […] The relative expression of FDPS was determined by its Ct value normalized to the level of actin for each sample.

A further data set deals with FDPS. Kind of data set: FDPS immunoblot in HepG2 cells infected with lentiviral vectors. The conditions noted are these: 48 hours, FIG. 4B. Format: cell-based, human. The procedure:
HepG2 human hepatocellular carcinoma cells were infected with lentiviral vectors containing either the H1 promoter and a FDPS shRNA (SEQ ID NO: 4) sequence or the EF-1alpha promoter and the following miR30-based FDPS sequences:
After 48 hours, cells were lysed and an immunoblot was performed using an anti-FDPS (Thermo Scientific) and an anti-actin (Sigma) antibody for a protein loading control. […] Treatment with the miR30-based FDPS sequences decreased FDPS expression.

The subject of a further data set is PC3 tumors. Kind of data set: PC3 tumor growth in NOD/SCID mice, transduced cells with or without zoledronic acid. Format: in vivo. The conditions noted are these: single dose of zoledronic acid. How it is done: Protocol overview for co-administration of LV-shRNA-FDPS (farnesyl diphosphate synthase) with or without zoledronic acid in mice implanted with human prostate cancer cell line PC3. Tumor cells were cultured in vitro, then transduced with lentivirus vector control with a scrambled sequence (nonfunctional) shRNA insert and an expression cassette for firefly luciferase, or LV-FDPS with a shRNA capable of reducing expression of FDPS mRNA and an expression cassette for firefly luciferase. The transduced tumor cells were implanted on the flank of immune deficient mice by subcutaneous injection. Once tumors reached approximately 200 mm^3 volume, all mice receive a single dose of zoledronic acid (100 micrograms per kilogram body weight, which is similar to a standard human dose) in saline. 7 days after zoledronic acid injection, an imaging study was repeated to measure volume and photon intensity of individual tumors.
Day—4: Material Preparation and Delivery. Prepare lenti-vector control and lenti-shRNA-FDPS transduced PC3 cells. • 1. […]
Effects of LV-shRNA-FDPS with or without zoledronic acid on PC3 tumor growth in NOD/SCID mice. […] A bioluminescence imaging study on Day 8 determined the average tumor sizes prior to zoledronic acid treatment (FIG. 10A). The photon intensity for tumors was measured with a CCD light capture system.

The next data set has as its system human CD47. Briefly: CD47 mRNA expression in Hep3B cells (quantitative RT-PCR). Format: cell-based. The conditions noted are these: 48 hours after transduction, mRNA normalized to actin, FIG. 7A. How it is done: Functional Assay: The effect of different CD47 shRNA targeting sequences on CD47 expression was determined by measuring mRNA expression. Hep3B hepatocellular carcinoma cells were transduced with a lentiviral vector containing CD47 shRNA sequences. After 48 hours, cells were lysed and RNA was extracted using the RNeasy mini kit from Qiagen. cDNA was then synthesized from RNA using SuperScript VILO from Invitrogen. The samples were then analyzed by quantitative RT-PCR using an Applied Biosystems StepOne PCR machine. CD47 expression was detected with SYBR Green from Invitrogen using the forward primer (5′-[…]-3′) (SEQ ID NO: 63) and reverse primer (5′-GCCTCTTGACATTCTCCTC-3′) (SEQ ID NO: 64). The samples were normalized by measuring actin expression using the forward primer (5′-AGCGCGGCTACAGCTTCA-3′) (SEQ ID NO: 61) and reverse primer (5′-[…]-3′) (SEQ ID NO: 65). The relative expression of CD47 was determined by its Ct value normalized to the level of actin for each sample.

Another data set concerns human cMyc. Briefly: cMyc mRNA expression in HepG2 cells (quantitative PCR). Format: cell-based. The conditions noted are these: 48 hours after transduction, mRNA normalized to actin, FIG. 8A. The procedure:
as §1, with “cMyc” for “FDPS”
Functional Assay: The effect of different cMyc shRNA targeting sequences on cMyc expression was determined by measuring mRNA expression. […] The samples were then analyzed by quantitative PCR using an Applied Biosystems StepOne PCR machine. cMyc expression was detected with SYBR Green from Invitrogen using the forward primer (5′-GGACTATCCTGCTGCCAA-3′) (SEQ ID NO: 69) and reverse primer (5′-GCCTCTTGACATTCTCCTC-3′) (SEQ ID NO: 64). […] The relative expression of cMyc was determined by its Ct value normalized to the level of actin for each sample.

These results are taken from patent US12359203B2, “Combination vectors and methods for treating cancer” (American Gene Technologies International Inc., priority 2016, dated 2025).

Regarding “cMyc shRNA Sequence 4: cMyc shRNA, SEQ ID NO: 13; used in FIG. 8B (GAGAATGTCAAGAGGCGAACACTCGAGTGTTCGCCTCTTGACATTCTCTTTTT)”, in the data set with cMyc, the cMyc protein expression entry is given as “significantly decreased”.
With “FDPS-2: FDPS shRNA, SEQ ID NO: 2 (DNA GCAGGATTTCGTTCAGCACTTCTCGAGAAGTGCTGAACGAAATCCTGCTTTTT)”, the “relative expression level of human FDPS” value in the data set on human FDPS was “most significant inhibition”.
As for “FDPS-4: FDPS shRNA, SEQ ID NO: 4; used with H1 promoter in FIG. 4B (DNA GCAGAAGGAGGCTGAGAAAGTCTCGAGACTTTCTCAGCCTCCTTCTGCTTTTT)”, in the data set with FDPS, the FDPS protein expression entry is “significantly decreased”. In addition, in the data set with human FDPS, the “relative expression level of human FDPS” value is reported as “most significant inhibition”.
For `O=P(O)(O)C(O)(Cn1ccnc1)P(=O)(O)O` [zoledronic acid], the toxicity in mice entry in the data set with PC3 tumors is on record as “not toxic”.
Turning to “CD47 sequence 1: CD47 shRNA, SEQ ID NO: 5 (DNA GGTGAAACGATCATCGAGCCTCGAGGCTCGATGATCGTTTCACCTTTTT)”, the “relative expression level of human CD47” value with human CD47 is on record as “most significant inhibition”.
As for “cMyc shRNA Sequence 2: cMyc shRNA, SEQ ID NO: 11 (DNA GCGAACACACAACGTCTTGGACTCGAGTCCAAGACGTTGTGTGTTCGCTTTT)”, the “relative expression level of human cMyc” value with human cMyc was “most significant inhibition”.
Regarding “CD47 sequence 3: CD47 shRNA, SEQ ID NO: 7 (DNA CCTCCTTCGTCATTGCCATCTCGAGATGGCAATGACGAAGGAGGTTTTT)”, in the data set on human CD47, the “relative expression level of human CD47” value was “most significant inhibition”.
